Target: T1, human FXR (Homo sapiens, UniProt Q96RI1)
T1 sequence (Q96RI1 262-486 limits assumed): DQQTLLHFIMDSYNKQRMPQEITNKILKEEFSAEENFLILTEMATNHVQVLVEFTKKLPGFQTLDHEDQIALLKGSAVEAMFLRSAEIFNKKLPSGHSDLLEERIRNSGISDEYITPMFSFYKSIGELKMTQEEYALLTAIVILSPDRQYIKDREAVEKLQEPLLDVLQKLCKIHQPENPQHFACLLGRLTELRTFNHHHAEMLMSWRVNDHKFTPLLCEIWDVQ
Assay: transient human FXR/Gal4-luciferase reporter assay (HLE GAL-FXR)
Conditions: HEK293 cells

[1] = FXR EC50 (nM), Gal4-hFXR fusion reporter, Table 1

Protocol: A Gal4-hFXR fusion construct reporter system was used as the primary assay to characterize compound activity. A construct including 5 copies of the Gal4 promoter response element upstream of a firefly luciferase reporter cDNA was stably expressed in HEK293 cells. This reporter cell line was maintained in Dulbecco's Modified Eagle's medium (DMEM; Gibco) supplemented with 1% penicillin-streptomycin (P/S) solution, 500 μg/mL Zeocin and 10% charcoal/dextran-treated fetal bovine serum (cs-FBS) at 37° C. in a humidified 5% CO2 atmosphere. Another plasmid was constructed in which the human cytomegalovirus promoter in the pcDNA3.1 vector directs the expression of the cDNA encoding a fusion protein comprised of the DNA binding domain from the Gal4 transcription factor fused to the ligand binding domain from human FXR.
For compound testing, 100 nL of the compounds (serial dilutions in DMSO) are dispensed with an Echo acoustic dispenser (Labcyte) into the wells of a Corning/Costar clear bottom 384-well white plate. The transfected cells are harvested, counted, and diluted such that 10-25,000 cells in 25 μL are plated into each well of the 384-well compound assay plate. The compound-treated cells are incubated overnight at 37° C. in a humidified 5% CO2 atmosphere. The next morning 25 μL of Steady-Glo (Promega) are added to each well of the plate, the mixture is incubated for 15 min. with shaking, and luminescence is measured on an Envision (Perkin Elmer) plate reader.

| SMILES | EC50 [1] [nM] | EC50 (HLE GAL-FXR EC50, Gal4-hFXR fusion reporter) [nM] |
| --- | --- | --- |
| COc1ccc(COc2cc(C(=O)O)nc3ccc(N4CC5C(/C=C/c6c(-c7c(Cl)cncc7Cl)noc6C6CC6)C5C4)cc23)cc1 (stereo not drawn) [Example 129] | 240 |  |
| O=C(O)c1cccc(-c2noc(N3CC4C(/C=C/c5c(-c6c(Cl)cncc6Cl)noc5C5CC5)C4C3)n2)c1 (stereo not drawn) [Example 133, (E)-3-(5-(6-(2-(5-cyclopropyl-3-(3,5-dichloropyridin-4-yl)isoxazol-4-yl)vinyl)-3-azabicyclo[3.1.0]hexan-3-yl)-1,2,4-oxadiazol-3-yl)benzoic acid] |  | 1290 |
| COc1nc(C(=O)O)cc2ccc(N3CC4C(/C=C/c5c(-c6ccccc6C(F)(F)F)noc5C5CC5)C4C3)cc12 (stereo not drawn) [Example 135] | 416 |  |
| O=C(O)c1cc(OC2COC2)cc(-c2nc(N3CC4C(/C=C/c5c(-c6c(Cl)cncc6Cl)noc5C5CC5)C4C3)no2)c1 (stereo not drawn) [Example 137] | 932 |  |
| O=C(O)c1cnc2ccc(N3CC4C(/C=C/c5c(-c6ccccc6C(F)(F)F)noc5C5CC5)C4C3)cc2n1 (stereo not drawn) [Example 138] | 2470 |  |
| COc1cc(C(=O)O)nc2sc(N3CC4C(/C=C/c5c(-c6ccccc6C(F)(F)F)noc5C5CC5)C4C3)nc12 (stereo not drawn) [Example 139] | 163 |  |
| O=C(O)c1cnc2cc(N3CC4C(/C=C/c5c(-c6ccccc6C(F)(F)F)noc5C5CC5)C4C3)ccc2n1 (stereo not drawn) [Example 140] | 142 |  |
| COc1cc(C(=O)O)nc2ccc(N3CC4C(/C=C/c5c(-c6cccnc6C(F)(F)F)noc5C5CC5)C4C3)cc12 (stereo not drawn) [Example 141] | 98 |  |
| O=C(O)c1ccc(N2CC3C(/C=C/c4c(-c5c(Cl)cccc5Cl)noc4C4CC4)C3C2)nc1 (stereo not drawn) [Example 144] | 424 |  |
| O=C(O)c1cc(C(F)(F)F)c2cc(N3CC[C@@H](/C=C/c4c(-c5ccccc5C(F)(F)F)noc4C4CC4)C3)ccc2n1 [Example 145] | 419 |  |
| O=C(O)c1cc(OC2CCC2)c2cc(N3CC[C@@H](/C=C/c4c(-c5ccccc5C(F)(F)F)noc4C4CC4)C3)ccc2n1 [Example 147] | 139 |  |
| CC(C)Oc1cc(C(=O)O)nc2ccc(N3CC(/C=C/c4c(-c5ccccc5C(F)(F)F)noc4C4CC4)C3)cc12 [Example 149] | 164 |  |
| O=C(O)c1cc(OC2COC2)c2cc(N3CC(/C=C/c4c(-c5ccccc5C(F)(F)F)noc4C4CC4)C3)ccc2n1 [Example 151] | 96 |  |
| O=C(O)c1cc(OC2CC(F)(F)C2)c2cc(N3CC(/C=C/c4c(-c5ccccc5C(F)(F)F)noc4C4CC4)C3)ccc2n1 [Example 152] | 228 |  |
| COc1cc(C(=O)O)nc2sc(N3CC(/C=C/c4c(-c5ccccc5C(F)(F)F)noc4C4CC4)C3)nc12 [Example 153] | 473 |  |

More lines, in order of falling EC50 [1], values ahead:

| EC50 [1] [nM] | EC50 (HLE GAL-FXR EC50, Gal4-hFXR fusion reporter) [nM] | SMILES |
| --- | --- | --- |
| 88 |  | O=C(O)c1cc(OC2COC2)c2cc(N3CC4C(/C=C/c5c(-c6cccnc6C(F)(F)F)noc5C5CC5)C4C3)ccc2n1 (stereo not drawn) [Example 143] |
| 58 |  | O=C(O)c1cc(OC2CCC2)c2cc(N3CC(/C=C/c4c(-c5ccccc5C(F)(F)F)noc4C4CC4)C3)ccc2n1 [Example 150] |
| 54 |  | O=C(O)c1cc(OC2CCC2)c2cc(N3CC4C(/C=C/c5c(-c6cccnc6C(F)(F)F)noc5C5CC5)C4C3)ccc2n1 (stereo not drawn) [Example 142] |
| 50 |  | O=C(O)c1cc(OC2CCC2)c2cc(N3CC4C(/C=C/c5c(-c6ccccc6C(F)(F)F)noc5C5CC5)C4C3)ccc2n1 (stereo not drawn) [Example 130] |
| 22 |  | O=C(O)c1cc(C(F)(F)F)c2cc(N3CC[C@H](/C=C/c4c(-c5ccccc5C(F)(F)F)noc4C4CC4)C3)ccc2n1 [Example 146] |
| 20 |  | O=C(O)c1cc(OC2CCC2)c2cc(N3CC4C(/C=C/c5c(-c6c(Cl)cncc6Cl)noc5C5CC5)C4C3)ccc2n1 (stereo not drawn) [Example 136] |
| 16 |  | COc1cc(C(=O)O)nc2ccc(N3CC4C(/C=C/c5c(-c6ccccc6C(F)(F)F)noc5C5CC5)C4C3)cc12 (stereo not drawn) [Example 132] |
| 15 |  | O=C(O)c1cc(OC2COC2)c2cc(N3CC4C(/C=C/c5c(-c6ccccc6C(F)(F)F)noc5C5CC5)C4C3)ccc2n1 (stereo not drawn) [Example 134] |
| 2 |  | O=C(O)c1cc(OC2CCC2)c2cc(N3CC[C@H](/C=C/c4c(-c5ccccc5C(F)(F)F)noc4C4CC4)C3)ccc2n1 [Example 148] |

Reference: US11168079B2, “Alkene compounds as farnesoid x receptor modulators” (BRISTOL-MYERS SQUIBB COMPANY, priority 2017, dated 2021)
